# Data as given in patent US3995033A, “Secondary phosphoric acid esters, composition and method of use” (priority 1971, dated 1976).
# Where a name gives a salt, the structure may show the parent alone.
# Experiments:
# [1] = tested on: bronchial smooth muscle, isolated perfused guinea-pig lung; assay: Effect on bronchial smooth muscle, isolated perfused guinea-pig lung
# Excerpt: The effects of esters of the present invention on bronchial smooth muscle have been investigated using an isolated perfused guinea-pig lung preparation according to Thattacharya & Delaunois (Arch. Int. Pharmacodyn. 101:495, 1955). The lungs from guinea-pigs weighing 300-400 g are removed, and the trachea and A. pulmonalis cannulated. The arterial cannula is connected to a perfusion fluid reservoir containing Tyrode solution buffered with 10 % Sorensen phosphate buffer. The tracheal cannula is connected with tubing to a carbogen gas supply delivering a constant amount per time unit. The perfusion pressure is measured in a side arm of the tubing with a "Mercury" transducer connected to an Ultralette UV-recorder. The compounds are injected via the arterial cannula, close to the entrance of A. pulmonalis in the lung.
# [2] = tested on: gerbil colon (ascending colon) in vivo; assay: Smooth muscle stimulatory effect on the gerbil colon in vivo; set-up: species or system mongolian gerbils
# Method: The experiments are performed with mongolian gerbils, anesthetized with pentobarbital, 50 mg/kg. The ascending colon is exposed and carefully stretched between silk thread loops and a strain-gauge transducer.
# After a stable base-line has been established an eter of this invention, sodium 3,5-dimethylphenyl 4-(3-(2,4,6-trihydroxyphenyl)-3-oxopropyl)phenylphosphate (Leo 1258) is infused i.v.
# [3] = tested on: gerbil colon, contractions produced by prostaglandins E1, E2, F1α and F2α; assay: PG-inhibitory effect on the isolated gerbil colon; set-up: species or system Gerbils (Meriones unguiculatus)
# Method: The PG-inhibitory effect of esters of the present invention on the gerbil colon are determined using the general technique described by Eakins, Miller & Karim (J. Pharm. Exp. Ther. 176:441, 1971). Gerbils (Meriones unguiculatus) of own breed, both sexes, weighing 50-80 g are used. The animal is stunned, colon ascendens immediately removed, and a 2-3 cm piece mounted in a 6 ml bath containing a modified de Jalon solution at 28° C and continuously oxygenated. Contractions of the organ are registered either isotonicaly or isometrically. When testing the inhibitory effect of a compound this is added to the bath 2 min. before the addition of prostaglandin. The antagonist (esters of this invention) is usually dissolved in saline, but occasionally an organic solvent such as ethanol has to be included. Several concentrations of each antagonist are used. In this system prostaglandins E1, E2, F1α and F2α produce suitable contractions of the organ in the concentration range 1-50 ng/ml.
# Results from these experiments give an approximation of the PG-inhibitory potency of the compounds. When more precise information about this is desired we use a more elaborate method involving the establishment of several […] dose-response curves in the presence of various concentrations of inhibitor. The method used is essentially the same as that described by Arunlakshana & Schild (Br. J. Pharm. 14:48, 1959). […]
# [4] = tested on: anaphylactic bronchoconstriction elicited by antigen (egg albumin), isolated perfused guinea-pig lung; assay: Anaphylactic bronchoconstriction in the isolated perfused lung of sensitized guinea-pigs
# Excerpt: The effects of esters of the present invention on the anaphylactic reaction in guinea-pigs have been investigated using the isolated perfused guinea-pig lung preparation as described by Bhattacharya & Delaunois (Arch. Int. Pharmacodyn. 101:495, 1955). Guinea-pigs weighing about 300 g are sensitized with egg albumin according to Fredholm & Strandberg (1969). After the appropriate sensitization period the lungs are removed and mounted in a moist, thermostated chamber. The trachea and A. pulmonalis are cannulated. The arterial cannula is connected to a perfusion fluid reservoir containing Tyrode solution buffered with 10 % Sorensen phosphate buffer. The tracheal cannula is connected with tubing to a carbogen gas supply delivering a constant amount per time unit. The perfusion pressure is measured in a side arm of the tubing with a "Mercury" transducer connected to an Ultralette UV-recorder. When antigen (egg albumin), 0.1 - 1.0 μg, is injected via the arterial cannula, a broncho-constriction, indicated by an increase in the perfusion pressure, is elicited.
# [5] = tested on: PGE2-stimulated corticosterone production by adrenals; assay: Prostaglandin-stimulated corticosterone production by rat adrenals in vitro; type: cell-based, Sprague-Dawley male rats; settings: for Corticosterone production: mean ± standard error
# Method: The inhibitory effect of esters of the present invention has been investigated on the prostaglandin-stimulated corticosterone production by adrenals from male rats in vitro. The experiments were performed using adult Sprague-Dawley male rats weighing 200-250 g, which were housed 1 per cage under conditions of controlled lighting and temperature. Animal quarters were not entered during the 18 hours preceding the experiment. The animals were sacrified by decapitation at 10 AM under conditions chosen to minimize disturbance of the animals. The adrenals were decapsulated and quartered and 8 adrenal quarters from different animals were distributed to 10 ml Erlenmeyer flasks containing 0.5 ml 0.9 % saline and 2.0 ml Krebs-Ringer bicarbonate buffer, pH 7.4. The weight of the adrenal tissue in each flask was determined. The flasks were gassed with 95 % O 2 -- 5 CO2 and preincubated at 37° C for 1 hour with continuous shaking. Following preincubation the media were decanted and discarded. One ml of Krebs-Ringer buffer, with or without the additions of prostaglandin E2 (PGE2) sodium 3,5-dimethylphenyl 4-(3-(2,4,6-trihydroxyphenyl)-3-oxopropyl)phenyl phosphate.
# (for details see below) was added to the flasks, which were then gassed with 95 % 02 -- 5 % CO2 and kept at 37° C for 1 hour with continuous shaking. Following incubation, corticosterone levels were determined on 0.5 ml aliquots of the medium by the sulphuric acid fluorescence method.
# In the first experiment (I) PGE2 in a concentration of 1 μg/ml was added to the incubation medium containing the quartered adrenals.
# In the next experiment (II) different amounts of Leo 1258 to the incubation medium.
# [6] = tested on: ovarian lactic acid production produced by PGE1; assay: Prostaglandin-stimulated glycolysis of the prepubertal ovary in vitro; type: cell-based, prepubertal rats
# Method: The action of esters of the present invention on the prostaglandin-stimulated glycolysis of the prepubertal ovary is investigated. The method used has been described in detail by Perklev & Ahren (Life Sciences Part I, 10:1387, 1971). In these experiments ovaries from prepubertal rats are removed and placed in Erlenmeyer flasks containing compounds of this invention dissolved in Krebs bicarbonate buffer. After that the ovaries have been preincubated during 60 min. at 37° C in this medium, they are blotted on filter paper and then washed for 2 min. in plain buffer. The ovaries are then transferred to a new incubation medium containing prostaglandins (PG) dissolved in Krebs bicarbonate buffer and incubated at 37° C for 2 hours with continuous shaking. The ovarian glycolysis is then determined by measuring the concentration of lactic acid in the incubation medium. When polyphloretin phosphate (PPP) is present in the preincubation medium in a concentration of 500 μg/ml, the subsequent ovarian lactic acid production produced by PGE1 is reduced to about 50 % of that obtained with ovaries preincubated in plain buffer.
# [7] = tested on: PGE1-stimulated ovarian glycolysis; assay: In vivo action on prostaglandin-stimulated glycolysis of the prepubertal ovary (i.p. injection, ovaries then incubated with PGE1); set-up: species or system Prepubertal rats of the Sprague-Dawley strain; settings: injected i.p. (500 μg in 1 ml saline) one hour before removal of ovaries; PGE1 0.4 μg/ml, 2 hours
# Method: Prepubertal rats, 24-26 days old, of the Sprague-Dawley strain, are injected intraperitoneally (i.p.) with 1 ml saline containing 500 μg sodium 3,5-dimethylphenyl 4-(3-(2,4,6-trihydroxyphenyl)-3-oxo-propyl)phenyl phosphate.
# One hour later the animals are sacrified by cervical fracture and the ovaries are removed and trimmed free of extraneous tissue. The ovaries are then transferred to an incubation bath containing prostaglandin E1 (PGE1; 0.4 μg/ml) dissolved in Krebs bicarbonate buffer and incubated at 37° C for 2 hours with continuous shaking. The ovarian glyclysis is then determined by measuring the concentration of lactic acid in the incubation medium. The details of the method have been described previously (Perkley, T. & Ahren, K., Life Sciences Part I, 10:1387, 1971).
# [8] = tested on: Slow Reacting Substance (SRS) contractions of isolated guinea-pig ileum; assay: Antagonism to Slow Reacting Substance on the isolated guinea-pig ileum
# Method: The antagonism to Slow Reacting Substance (SRS) is determined on the isolated guinea-pig ileum as described by Mathe & Standberg (Acta physiol. scand. 82:460, 1971). Purified SRS is obtained from cat paws perfused with compound 48/80 (Strandberg & Uvnas: Acta physiol. scand. 82.358, 1971). Sodium 4-(3-oxo-3-(2,4,6-trihydroxyphenyl)propyl)phenyl phenyl phosphate was tested in this system in several concentrations.
# [9] = tested on: contractions produced by histamine and bradykinin, isolated guinea-pig ileum; assay: Selectivity on the isolated guinea-pig ileum: histamine and bradykinin; settings: concentrations as low as 5 μg/ml
smiles,measurement,setting,value
"Cc1cc(C)cc(OP(=O)(O)Oc2ccc(CCC(=O)c3c(O)cc(O)cc3O)cc2)c1 [Leo 1258, sodium 3,5-dimethylphenyl 4-(3-(2,4,6-trihydroxyphenyl)-3-oxopropyl)phenylphosphate]",dose showing a broncho-constricting effect,[1]; injected via the arterial cannula,≥ 0.5 mg
same,reaction of the gut,[2]; 1 mg/ml in the buffer solution superfusing the gut,increase in tone
same,minimal effective dose,"[2]; Meriones unguiculatus, iv, infused i.v., anesthetized gerbils, read-out: dose that causes the gut to respond with a series of contractions",≥ 40 mg/kg
same,"concentration for 50 per cent reduction of the PG-induced contraction, as fraction of that of PPP",[3]; relative to PPP,about one tenth
same,effect on the anaphylactic bronchoconstriction,[4]; 4-20 μg/ml incorporated in the Tyrode solution,abolished or markedly reduced
same,effect on the PGE2-stimulated corticosterone production,[5]; 0.25 and 1.0 mg added to the incubation bath,dose-related inhibition
same,Corticosterone production,"[5]; Exp. II group A, Leo 1258 250 μg/ml without PGE2",3.9±0.5 μg/100 mgx 1 h
same,Corticosterone production,"[5]; Exp. II group C, PGE2 1 μg/ml + Leo 1258 250 μg/ml",6.5±0.5 μg/100 mgx 1 h
same,Corticosterone production,"[5]; Exp. II group D, PGE2 1 μg/ml + Leo 1258 1 mg/ml",2.9±0.2 μg/100 mgx 1 h
same,activity as a prostaglandin inhibitor relative to PPP,[6],5-10 times
same,IC50,"[6]; Rattus norvegicus, 60 min. preincubation, then 2 hours with PG, read-out: concentration in the preincubation medium giving about 50 % reduction of the lactic acid production produced by PGE1",50 to 100 µg/mL
same,ovarian glycolysis (lactic acid) compared with saline-injected animals,[7],significantly reduced
"CCCCC[C@H](O)/C=C/[C@H]1[C@H](O)CC(=O)[C@@H]1C/C=C\CCCC(=O)O [PGE2, prostaglandin E2, reference compound]",Corticosterone production,"[5]; Exp. I, PGE2 1 μg/ml alone, 4 observ.",7.6±0.4 μg/100 mgx 1 h
same,Corticosterone production,"[5]; Exp. II group B, PGE2 1 μg/ml alone",8.4±0.5 μg/100 mgx 1 h
same,effect on the corticosterone concentration,"[5]; PGE2 1 μg/ml, Exp. I",highly significant increase
"O=C(CCc1ccc(OP(=O)([O-])Oc2ccccc2)cc1)c1c(O)cc(O)cc1O.[Na+] [sodium 4-(3-oxo-3-(2,4,6-trihydroxyphenyl)propyl)-phenyl phenyl phosphate]",concentration that inhibits contractions produced by SRS,[8]; concentrations as low as,5 µg/mL
same,manner of the inhibition of SRS contractions,"[8]; parallel shift of the dose-response curves, no change in maximum contraction",competitive
same,inhibition of contractions produced by histamine and bradykinin,[9],not by histamine and bradykinin
"O=P(O)(Oc1ccccc1)Oc1ccccc1 [sodium salt of diphenyl phosphate, reference compound]",broncho-constricting effect,[1]; dose of 12.8 mg,completely lacked such an effect
same,effect on the gut,"[2]; i.v., doses up to 400 mg/kg",no effect at all
same,PG-inhibitory effect on the gerbil colon,[3]; concentrations 10 times as high as that of PPP,without effect
same,antagonism to SRS,[8],without effect
same,effect on the anaphylactic bronchoconstriction,[4]; concentration 100 μg/ml,completely lacked such an effect
